According to patent US20040143025A1, “Carbon monoxide generating compunds for treatment of vascular, inflammatory and immune disorders” (priority 2002, published 2004):

Assays:
Lewis rats = assay: Experimental autoimmune encephalomyelitis (EAE) model of multiple sclerosis; assay type: in vivo, rat; details: daily oral administration from day 8 post-inoculation; scale 0 to 3
Experimental: Multiple sclerosis is characterized by an autoimmune and inflammatory response directed against myelin sheath and oligodendrocytes, resulting in demyelination in the central nervous system. A well-established animal model of multiple sclerosis, experimental autoimmune encephalomyelitis (EAE), was used to examine the effect of the subject alkyl halides on this autoimmune and inflammatory condition of the central nervous system. Lewis rats were given intradermal footpad injections of 50 μg guinea pig myelin basic protein (MBP) and complete Freund's adjuvant (CFA) to induce experimental allergic encephalomyelitis (EAE). Daily oral administration of vehicle, methylene chloride or iodoform was started on day 8 post-inoculation and continued to the end of the study. Animals were monitored and scored on a 0 (normal) to 3 (complete hindlimb paralysis) scale. Daily mean±SD clinical scores are shown.

[1] = tested on: anti-MHC class I alloantibodies; assay: Detection of alloantibodies (cytofluorimetry); assay type: in vivo, rat; details: vs recipients of control adenovirus-treated aortas
Experimental: Detection of alloantibodies. Donor LEW.1W splenocyts were incubated with heat-inactivated serum from ELW.1A recipients, serially diluted in PBS. Cells were then washed and simultaneously incubated with FITC-coupled donkey anti-rat IgG (Jackson Laboratories) and with a biotin-labeled anti-B cell Mab (clone OX33, ECACC). After washing, cells were incubated with phycoerythrin-coupled streptavidin. Serum levels of alloantibodies were determined by cytofluorimetry (FACScalibur, Becton Dickinson, San Jose, Calif.) and reported as the mean channel fluorescence (MCF) at each dilution of serum. A predominance of anti-donor MHC class II alloantibodies, as previously described in certain tolerance models (Cuturi et al., Eur. J. Immunol. 24:1627-31 (1994)), is detected by the binding of alloantibodies only to OX33 positive cells (B cells). The presence of anti-MHC class I alloantibodies results in labeling of OX33 negative (T cells) and positive cells. MCF of alloantibody binding to OX33 negative cells indicated the level of anti-MHC I alloantibodies.

TNF-α = assay: LPS-induced serum TNF-α in mice (sandwich ELISA); assay type: in vivo, C57/BL6 mice
Experimental: To examine the effect of gaseous CO on the immune system, C57/BL6 mice (B6, Jackson Laboratory, Bar Harbor, Me.) were first exposed to 500 ppm CO in air (Praxair, Danbury, Conn.) for one hour in a sealed chamber before injection of lipopolysaccharide (LPS) (0.3 mg/kg, i.v., Sigma, St Louis, Mo.). After injection, they were exposed to another hour in the CO chamber. Blood samples were collected one hour after LPS injection (through the aortic artery) and the COHb level in whole blood was measured by a whole blood AVOXimeter 4000 (A-VOX Systems, San Antonio, Tex.). Serum samples were separated and were kept at −80° C. until analysis. Serum TNF-α was measured by sandwich ELISA (Biosource, Camarillo, Calif.).
To reveal the therapeutic potential of CO generators, methylene chloride (MC, Sigma, St. Louis, Mo.) was selected as a lead compound. Different concentrations of MC were prepared by using olive oil as a solvent. Mice were treated with MC at 5 mg/kg., 50 mg/kg, and 500 mg/kg, p.o., one hour before LPS administration.

iNOS = assay: Western blot of liver samples, iNOS; set-up: species or system rat; details: 2 h reperfusion
Experimental: Western blots. Protein was extracted from liver samples with PBSTDS buffer (50 mM Tris, 150 mM NaCl, 0.1% SDS, 1% sodium deoxycholate, and 1% triton X-100, pH 7.2). Proteins (30 μg/sample) in SDS-loading buffer (50 mM Tris, pH 7.6, 10% glycerol, 1% SDS) were subjected to 12% SDS-polyacrylamide gel electrophoresis and transferred to nitrocellulose membrane (Bio-Rad, Hercules, Calif.). The gel was stained with coomassie blue to document equal protein loading. The membrane was blocked with 3% dry milk and 0.1% Tween 20 (USB, Cleveland, Ohio) in PBS and incubated with rabbit anti-rat HO-1 or iNOS polyclonal Abs (SangStat, Fremont, Calif.). Relative protein quantities were determined using a densitometer (Kodak Digital Science 1D Analysis Software, Rochester, N.Y.).

| SMILES | clinical score / clinical signs (Lewis rats) | levels of anti-MHC class I alloantibodies [1] | level of TNF-α (TNF-α; MC 5 mg/kg p.o. one hour before LPS) | level of TNF-α (TNF-α; MC 50 mg/kg p.o. one hour before LPS) | level of TNF-α (TNF-α; MC 500 mg/kg p.o. one hour before LPS) | iNOS expression (Western blot) (iNOS) | serum TNF-α levels (TNF-α; LPS 0.3 mg/kg i.v., 500 ppm CO in air 1 h before and 1 h after LPS, blood 1 h after LPS) |
| --- | --- | --- | --- | --- | --- | --- | --- |
| ClCCl [methylene chloride] | show improvement over the controls | no statistical differences | 3720 ± 1666 pg/mL | 3124.2 ± 1147 pg/mL | 2339 ± 770 pg/mL | – | – |
| [C-]#[O+] [CO, carbon monoxide] | – | – | – | – | – | no detectable bands | 3,347+1393 pg/ml |
